Measured values: patent US12077503B2, “Substituted cyclic amides and their use as herbicides” (FMC CORPORATION, priority 2015, dated 2024)
Like-named read-outs stand apart in the source and are kept apart here.

Key:
Type in all cases: in vivo
[1] = test system: barnyardgrass (Echinochloa crus-galli); assay: Test A preemergence; settings: Echinochloa crus-galli, pre-emergence, 240 h, preemergence, 0 to 100 scale where 0 is no effect and 100 is complete control, read-out: Barnyardgrass plant response rating; for pest or weed control at 125 g/ha: 125 g ai/ha, approx. 10 d; for pest or weed control at 500 g/ha: 500 g ai/ha
Method in brief: (§1)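 Visual injury, scored on a 0–100 scale relative to untreated controls, was recorded about 10 d after application. Treatments were a preemergence soil spray over planted seeds or a postemergence spray on plants at the one- to two-leaf stage, 2 to 10 cm tall, all in loam soil–sand blend in the greenhouse.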

[2] = test system: ryegrass, Italian (Italian ryegrass, Lolium multiflorum); assay: Test A preemergence; settings: Lolium multiflorum, pre-emergence, 240 h, preemergence, 0 to 100 scale where 0 is no effect and 100 is complete control, read-out: Ryegrass, Italian plant response rating; for pest or weed control at 125 g/ha: 125 g ai/ha, approx. 10 d; for pest or weed control at 500 g/ha: 500 g ai/ha
Method in brief: as §1

[3] = test system: ragweed (common ragweed, Ambrosia elatior); assay: Test A preemergence; settings: Ambrosia artemisiifolia, pre-emergence, 240 h, preemergence, 0 to 100 scale where 0 is no effect and 100 is complete control, read-out: Ragweed plant response rating; for pest or weed control at 125 g/ha: 125 g ai/ha, approx. 10 d; for pest or weed control at 500 g/ha: 500 g ai/ha
Method in brief: as §1

[4] = test system: Kochia (Kochia scoparia); assay: Test A preemergence; settings: Bassia scoparia, pre-emergence, 240 h, preemergence, 0 to 100 scale where 0 is no effect and 100 is complete control, read-out: Kochia plant response rating; for pest or weed control at 125 g/ha: 125 g ai/ha, approx. 10 d; for pest or weed control at 500 g/ha: 500 g ai/ha
Method in brief: as §1

[5] = test system: giant foxtail (Setaria faberii); assay: Test A preemergence; settings: Setaria faberi, pre-emergence, 240 h, preemergence, 0 to 100 scale where 0 is no effect and 100 is complete control, read-out: Foxtail, Giant plant response rating; for pest or weed control at 125 g/ha: 125 g ai/ha, approx. 10 d; for pest or weed control at 500 g/ha: 500 g ai/ha
Method in brief: as §1

[6] = test system: pigweed (Amaranthus retroflexus); assay: Test A preemergence; settings: Amaranthus retroflexus, pre-emergence, 240 h, preemergence, 0 to 100 scale where 0 is no effect and 100 is complete control, read-out: Pigweed plant response rating; for pest or weed control at 125 g/ha: 125 g ai/ha, approx. 10 d; for pest or weed control at 500 g/ha: 500 g ai/ha
[7] = test system: barnyardgrass (Echinochloa crus-galli); assay: Test B flooded paddy test; settings: Echinochloa crus-galli, 250 g ai/ha, Flood; 0 to 100 scale where 0 is no effect and 100 is complete control; read-out: Barnyardgrass plant response rating
Method in brief: (§2)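 Compound goes directly into floodwater once pots are flooded 3 cm above soil, targeting plants at two leaves; the water depth is then held for the test duration. Plants sit 13–15 d in a greenhouse and are rated visually, 100 denoting complete control.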

[8] = test system: rice (Oryra sativa); assay: Test B flooded paddy test; settings: Oryza sativa, 250 g ai/ha, Flood; 0 to 100 scale where 0 is no effect and 100 is complete control; read-out: Rice plant response rating
Method in brief: as §2

[9] = test system: sedge, umbrella (small-flower umbrella sedge, Cyperus difformis); assay: Test B flooded paddy test; settings: Cyperus difformis, 250 g ai/ha, Flood; 0 to 100 scale where 0 is no effect and 100 is complete control; read-out: Sedge, Umbrella plant response rating
Method in brief: as §2

[10] = test system: ducksalad (Heteranthera limosa); assay: Test B flooded paddy test; settings: Heteranthera limosa, 250 g ai/ha, Flood; 0 to 100 scale where 0 is no effect and 100 is complete control; read-out: Ducksalad plant response rating
Method in brief: as §2

[11] = test system: ryegrass, Italian (Italian ryegrass, Lolium multiflorum); assay: Test A postemergence; settings: Lolium multiflorum, post-emergence, 240 h, postemergence; for pest or weed control at 125 g/ha: 125 g ai/ha; for pest or weed control at 500 g/ha: 500 g ai/ha, 0 to 100 scale, 0 is no effect, 100 is complete control
Method in brief: as §1

[12] = test system: wheat (Triticum aestivum); assay: Test A postemergence; settings: Triticum aestivum, post-emergence, 240 h, postemergence; for plant injury at 125 g/ha: 125 g ai/ha; for plant injury at 500 g/ha: 500 g ai/ha, 0 to 100 scale, 0 is no effect, 100 is complete control
Method in brief: as §1

[13] = test system: ragweed (common ragweed, Ambrosia elatior); assay: Test A postemergence; settings: Ambrosia artemisiifolia, post-emergence, 240 h, postemergence; for pest or weed control at 125 g/ha: 125 g ai/ha; for pest or weed control at 500 g/ha: 500 g ai/ha, 0 to 100 scale, 0 is no effect, 100 is complete control
Method in brief: as §1

[14] = test system: giant foxtail (Setaria faberii); assay: Test A postemergence; settings: Setaria faberi, post-emergence, 240 h, postemergence; for pest or weed control at 125 g/ha: 125 g ai/ha; for pest or weed control at 500 g/ha: 500 g ai/ha, 0 to 100 scale, 0 is no effect, 100 is complete control
Method in brief: as §1

[15] = visual injury on 0 to 100 scale (0 no effect, 100 complete control), approx. 10 d, read-out: Ryegrass, Italian plant response rating
[16] = read-out: Ryegrass, Italian plant response rating
[17] = visual injury on 0 to 100 scale (0 no effect, 100 complete control), approx. 10 d, read-out: Wheat plant response rating
[18] = read-out: Wheat plant response rating
[19] = visual injury on 0 to 100 scale (0 no effect, 100 complete control), approx. 10 d, read-out: Ragweed plant response rating
[20] = read-out: Ragweed plant response rating
[21] = visual injury on 0 to 100 scale (0 no effect, 100 complete control), approx. 10 d, read-out: Foxtail, Giant plant response rating
[22] = read-out: Foxtail, Giant plant response rating

| SMILES | pest or weed control at 125 g/ha [1] | pest or weed control at 500 g/ha [1] | pest or weed control at 125 g/ha [2] | pest or weed control at 500 g/ha [2] | pest or weed control at 125 g/ha [3] | pest or weed control at 500 g/ha [3] | pest or weed control at 125 g/ha [4] | pest or weed control at 500 g/ha [4] | pest or weed control at 125 g/ha [5] | pest or weed control at 500 g/ha [5] | pest or weed control at 125 g/ha [6] | pest or weed control at 500 g/ha [6] | pest or weed control at 250 g/ha [7] | pest or weed control at 250 g/ha [8] | pest or weed control at 250 g/ha [9] | pest or weed control at 250 g/ha [10] | pest or weed control at 500 g/ha [11, 16] | plant injury at 500 g/ha [12, 18] | pest or weed control at 500 g/ha [13, 20] | pest or weed control at 500 g/ha [14, 22] | further results |
| --- | --- | --- | --- | --- | --- | --- | --- | --- | --- | --- | --- | --- | --- | --- | --- | --- | --- | --- | --- | --- | --- |
| O=C1NC[C@H](c2ccc3c(c2)OCO3)[C@H]1C(=O)Nc1cccc(F)c1C(F)(F)F [Compound 1127] | 0% | 30% | 0% | 0% | 0% | 0% | 0% | 0% | 0% | 70% | 0% | 0% | 0% | 0% | 0% | 100% | 0% | 0% | 0% | 50% | pest or weed control at 125 g/ha [11, 15]: 0%; plant injury at 125 g/ha [12, 17]: 0%; pest or weed control at 125 g/ha [13, 19]: 0%; pest or weed control at 125 g/ha [14, 21]: 0% |
| O=C1NC[C@H](c2ccc(F)c(OC(F)(F)C(F)F)c2)[C@H]1C(=O)Nc1cccc(F)c1F [Compound 1131] | 90% | 90% | 0% | 70% | 60% | 80% | 100% | 90% | 90% | 90% | 80% | 90% | 60% | 30% | 0% | 70% | 50% | 70% | 80% | 90% | pest or weed control at 125 g/ha [11, 15]: 0%; plant injury at 125 g/ha [12, 17]: 50%; pest or weed control at 125 g/ha [13, 19]: 50%; pest or weed control at 125 g/ha [14, 21]: 80% |
| CN1CC(c2cccc(Br)c2)C(C(=O)Nc2ccccc2F)C1=O (stereo not drawn) [Compound 1132] | 90% | 90% | 30% | 50% | 0% | 0% | 0% | 0% | 100% | 100% | 0% | 0% | 60% | 15% | 40% | 90% | 30% | 70% | 0% | 90% | pest or weed control at 125 g/ha [11, 15]: 0%; plant injury at 125 g/ha [12, 17]: 30%; pest or weed control at 125 g/ha [13, 19]: 0%; pest or weed control at 125 g/ha [14, 21]: 80% |
| O=C1NC[C@H](c2ccc(F)c(OC(F)(F)C(F)(F)Br)c2)[C@H]1C(=O)Nc1ccccc1F [Compound 1134] | 30% | 80% | 0% | 40% | 0% | 70% | 50% | 60% | 70% | 90% | 0% | 30% | 0% | 0% | 0% | 0% | 20% | 20% | 30% | 80% | pest or weed control at 125 g/ha [11, 15]: 20%; plant injury at 125 g/ha [12, 17]: 0%; pest or weed control at 125 g/ha [13, 19]: 0%; pest or weed control at 125 g/ha [14, 21]: 30% |
| Cc1nc([C@H]2CNC(=O)[C@@H]2C(=O)Nc2cccc(F)c2F)cs1 [Compound 1180] | 20% | 70% | 0% | 0% | 0% | 0% | 0% | 30% | 0% | 50% | 0% | 0% | 0% | 0% | 0% | 85% | 0% | 0% | 0% | 0% | pest or weed control at 125 g/ha ([11]; visual injury vs untreated controls after approx. 10 d, 0 = no effect, 100 = complete control, read-out: Ryegrass, Italian plant response rating (0 to 100 scale)): 0%; plant injury at 125 g/ha ([12]; visual injury vs untreated controls after approx. 10 d, 0 = no effect, 100 = complete control, read-out: Wheat plant response rating (0 to 100 scale)): 0%; pest or weed control at 125 g/ha ([13]; visual injury vs untreated controls after approx. 10 d, 0 = no effect, 100 = complete control, read-out: Ragweed plant response rating (0 to 100 scale)): 0%; pest or weed control at 125 g/ha ([14]; visual injury vs untreated controls after approx. 10 d, 0 = no effect, 100 = complete control, read-out: Foxtail, Giant plant response rating (0 to 100 scale)): 0% |
